Data as given in paper PMC12535076, “Neurotherapeutic effects of Vutiglabridin as a Paraoxonase-2 modulator in preclinical models of Parkinson’s disease” (Molecular Neurodegeneration, 2025).

Experiments:
shPON2-SH-SY5Y cells = experiment: Mitochondrial activity in PON2 knockdown (shPON2) and shSCR SH-SY5Y cells treated with MPP+; assay type: cell-based, human
Protocol: Human SH-SY5Y neuroblastoma cells (ATCC® (CRL-2266™; Manassas, VA, USA) were first cultured in Dulbecco’s Modified Eagle Medium (DMEM)/F12 supplemented with 10% fetal bovine serum (FBS), 100 U/mL penicillin, and 100 µg/mL streptomycin (complete media, CM) at 37 °C with 5% CO2. Cells (5 × 10^4 cells/well) then were cultured in 96-well plates for 24 h followed by incubation in serum-deficient media (SDM, culture media containing 0.5% FBS) for 16 h. Quiescent cells in SDM were incubated with 1 mM MPP^+ or dimethyl sulfoxide (DMSO) vehicle for 24 h, then treated with Vuti at the designated doses for 24 h. The treated cells were harvested according to the purpose and analyzed.
Lentiviral PON2 shRNA (h) (sc-62838) was purchased from Santa Cruz Co. (Santa Cruz, CA, USA). shRNA lentiviral particle transduction was performed according to the manufacturer’s protocol. Total RNA was isolated with a Trizol reagent (Invitrogen, Carlsbad, CA, USA). […] PON2 knockdown was verified by quantitative PCR, and the primers and methods used are described in the supplementary material.
A systemic cell-based mitochondrial function analysis system was established using SH-SY5Y cells in 96-well plates based on fluorescence detection methods as described previously. The assay system covers quantitative assays for methyl thiazyl tetrazolium-mitochondrial dehydrogenase activity (MTT), TMRE-based mitochondrial membrane potential (TMRE), ATP contents, and ROS of cells. […] Fluorescence intensities at 550 nm/580 nm for TMRE, at 510 nm/580 nm MitoSOX, or at 494 nm/522 nm for DCF-DA were normalized by Hoechst intensity at 355 nm/480 nm (Spectramax Gemini EM, Molecular Devices, Sunnyvale, CA, USA).
Endogenous OCR was measured in adherent SH-SY5Y cells using a Seahorse XF-24 Analyzer (Seahorse Bioscience, Billerica, MA, USA) following the manufacturer’s protocol with minor modifications. […] The OCR was calculated from 3-min measurement cycles and normalized to cell number.

[1] = test system: MPTP-injected C57BL/6 mice; experiment: MPTP-injected sub-acute PD mouse model (pole test, rotarod, TH immunohistochemistry); assay type: in vivo; conditions: MPTP mice
Protocol: Animals were allowed at least 1 week of acclimatization before being subjected to the study and were housed in a regulated environment with a 12-h/12-h light/dark cycle. Food and water were provided ad libitum. The animal experiment was carried out in accordance with the National Institutes of Health Guide for the Care and Use of Laboratory Animals (NIH Publications No. 80–23; revised 1996). All procedures for handling mice were carried out in accordance with “Principles of Laboratory Animal Care” and the Animal Care and Use guidelines of Kyung Hee University, Seoul, Korea (KHSASP-20-163).
MPTP was dissolved in distilled water and injected intraperitoneally for five days from day 10 of the 21-day experiment period. Vuti or rasagiline was administered via oral gavage for 21 days. Vehicles for both Vuti and MPTP (distilled water) were administered to all mice. Mice were randomly divided for all studies. For the first set of studies shown in Fig. 3, each group consisted of 5 animals.
To determine forelimb and hindlimb motor coordination and balance, we performed the rotarod test as described previously. Also, the pole test was performed to measure bradykinesia. For the rotarod test, the animals were pre-trained on the rotating bar of a rotarod unit set (LE 8500, Letica, Spain) on days 18 and 19 before the test on day 20. During pre-training, three trials per day were performed (5 rpm rotation speed on the first day, 15 rpm rotation speed on the second day). Mice were kept on the rotating bar (7.3-cm diameter) for 5 min on each trial. On day 20, the time spent on the rotating bar at 20 rpm, which was defined as the latent period, was recorded. Performance was recorded as 300 s if the latent period exceeded 300 s. Mice had at least 5 min of rest between trials to reduce stress and fatigue. Each animal underwent three test trials, and the mean of the test results was subjected to statistical analysis. For the pole test, mice were held on the top of the pole (diameter 8 mm, height 55 cm, with a rough surface). The time to land down and place four fee on the floor was recorded as the time for locomotion activity (T-LA).
On day 21, mice were anesthetized with sodium pentobarbital (50 mg/kg intraperitoneally) and transcardially perfused with saline containing 0.5% sodium nitrate and heparin (10 U/mL) and then fixed with 4% PFA in 0.1 M phosphate-buffer (PB, pH 7.2). Dissected brains were post-fixed overnight in buffered 4% PFA at 4 °C and stored in a 30% sucrose solution until they sank. Brains were cryosectioned into 30 μm thick coronal sections in a Cryostat (Microsystems AG, Leica, Wetzlar, Germany) and stored until use at 4℃ in a cryoprotectant (25% ethylene glycol, 25% glycerol, 0.2 M PB, and water). All sections were collected in six separate series and processed for immunostaining.
Free-floating brain sections were processed with the avidin-biotin peroxidase complex (ABC) complex (Vector Laboratories, Burlingame, CA, USA) method. Briefly, brain sections were incubated with primary rabbit anti-TH antibodies (1:1000; Pel-Freez Biologicals, Rogers, AR, USA) overnight at 4 °C, with biotinylated anti-rabbit IgG (1:400) for 1 h at room temperature, and then with the ABC solution (1:1:200) for 1 h at room temperature. The immunoperoxidase signals of TH was detected by incubating sections with 0.5 mg/ml 3,3′-diaminobenzidine (Sigma, St. Louis, MO, USA) in 0.1 M PB containing 0.003% H2O2. Stained brain sections were mounted on gelatin-coated slides and imaged under a bright-field microscope (Olympus Optical, Tokyo, Japan). TH-positivity in the ST was measured by the optical density of TH-positive fibers at x40 magnification using ImageJ software (National Institutes of Health, Bethesda, MD, USA). TH-positive cells in the SNpc in brain tissue Sect. (5 sections/series) were counted at x100 magnification as previously described. […]

[2] = Vuti 1, 50, 100 mg/kg/day or rasagiline 0.1 mg/kg/day orally for 21 days

With `CCOc1ccc(C2COc3c(ccc4c3CCC(C)(C)O4)C2)c(O)c1` (stereo not shown) [Vuti, Vutiglabridin] the “MPP+-induced mitochondrial damages in shSCR cells” value (shPON2-SH-SY5Y cells; control scrambled shRNA cells, 1 mM MPP+ then 1 nM Vuti) was “significantly restored”, the “OCR (basal respiration, ATP turnover rate, maximum respiratory capacity) in shPON2 cells” value (shPON2-SH-SY5Y cells; shPON2 cells, 1 mM MPP+ 20 h then 1 nM Vuti 24 h) was “failed to restore” and the “effects on mitochondria function (MTT, ATP content, TMRE, DCF-DA-ROS, MitoSOX-ROS) in shPON2 cells” value (shPON2-SH-SY5Y cells; shPON2 infected cells, 1 mM MPP+ 20 h then 1 nM Vuti 24 h) was “considerably reduced or almost completely abolished”. The “effect on T-LA in the pole test” value [1, 2] was “significantly normalized”, the “effect on latency to fall in the rotarod test” value [1, 2] was “significantly normalized” and the “number of TH-positive cells in the SNpc and fiber density in the ST” value ([1]; Vuti 1, 50, 100 mg/kg/day oral, p < 0.001 vs. control, levels comparable to rasagiline) was “dose-dependently increased”. For the same compound, the maximum efficacy dose ([1]; no difference in neuroprotection between 50 and 100 mg/kg) was 50 mg/kg.
